Key:
HDAC 3 = target: T1, HDAC 3 (Homo sapiens, UniProt O15379); experiment: HDAC panel by Reaction Biology Corp., HDAC 3; format: biochemical; conditions: read-out: HDAC inhibitory activities, HDAC 3
T1 construct: Reaction Biology Corp
Text: (§1) The inhibitory activities of Compounds 255 and 374 on all HDACs were confirmed (by Reaction Biology Corp.).

HDAC 9 = target: T2, HDAC 9 (Homo sapiens, UniProt Q9UKV0); experiment: HDAC panel by Reaction Biology Corp., HDAC 9; format: biochemical; conditions: read-out: HDAC inhibitory activities, HDAC 9
T2 construct: Reaction Biology Corp
Text: as §1

HDAC 10 = target: T3, HDAC 10 (Homo sapiens, UniProt Q969S8); experiment: HDAC panel by Reaction Biology Corp., HDAC 10; format: biochemical; conditions: read-out: HDAC inhibitory activities, HDAC 10
T3 construct: Reaction Biology Corp
T3 sequence (Q969S8 1-669): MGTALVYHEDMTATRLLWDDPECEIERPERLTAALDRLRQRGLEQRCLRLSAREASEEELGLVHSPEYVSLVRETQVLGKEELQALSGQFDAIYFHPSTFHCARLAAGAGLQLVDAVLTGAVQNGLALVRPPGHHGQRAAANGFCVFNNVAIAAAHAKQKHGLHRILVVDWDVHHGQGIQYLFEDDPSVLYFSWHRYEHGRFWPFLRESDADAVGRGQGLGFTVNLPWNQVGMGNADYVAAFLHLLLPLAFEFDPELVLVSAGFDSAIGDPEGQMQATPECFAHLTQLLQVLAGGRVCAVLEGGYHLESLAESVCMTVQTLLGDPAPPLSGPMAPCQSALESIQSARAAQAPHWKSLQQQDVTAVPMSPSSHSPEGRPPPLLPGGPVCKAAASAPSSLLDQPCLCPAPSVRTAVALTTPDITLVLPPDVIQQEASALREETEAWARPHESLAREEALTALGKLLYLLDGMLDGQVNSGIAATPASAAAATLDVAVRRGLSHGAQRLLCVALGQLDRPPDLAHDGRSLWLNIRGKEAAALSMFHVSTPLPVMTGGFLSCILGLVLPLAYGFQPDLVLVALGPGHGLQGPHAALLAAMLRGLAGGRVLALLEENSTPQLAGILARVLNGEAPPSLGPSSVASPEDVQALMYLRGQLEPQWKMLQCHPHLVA
Text: as §1

[1] = test system: collagen-induced arthritis models; experiment: Collagen-induced arthritis models; format: in vivo, DBA/1J mice; conditions: for arthritis symptoms improved by: versus vehicle group
Method: An emulsion was prepared by mixing bovine collagen type II (Chondrex) and complete Freund's adjuvant (Chondrex) at a ratio of 1:1 until the […] using a 1 ml pipette. Each 100 μL of emulsion was intradermally injected into the tail of DBA/1J mice for the first immunization. After 21 days, an emulsion was prepared by mixing bovine collagen type II and incomplete Freund's adjuvant (Chondrex) at a ratio of 1:1 by the same method as above. Each of 100 μL of emulsion was intradermally injected into the upper part of the tail of DBA/1J mice for the second boosting immunization. After the second boosting immunization, the mice were grouped according to body weight, the test drug was administered to each group, and the effects of the test drugs were measured by measuring the clinical score and the body weight. The clinical scores were assigned from 0 to 4, and the total clinical score was determined by evaluating the feet of each mouse and summing up the scores (normal: 0, most severe edema: 16). That is, the efficacy in the arthritis models was evaluated with the severity of edema of the joint, and a higher score was assigned to more severe edema.

HDAC1 = HDAC1 (Homo sapiens, UniProt Q13547); experiment: HDAC panel by Reaction Biology Corp., HDAC 1; format: biochemical; design: Reaction Biology Corp; conditions: Table 15, Reaction Biology Corp.; read-out: HDAC1 inhibitory activity
Text: as §1

HDAC 6 = target: T4, HDAC 6 (Homo sapiens, UniProt Q9UBN7); experiment: HDAC panel by Reaction Biology Corp., HDAC 6; format: biochemical; design: Reaction Biology Corp; conditions: for IC50: Table 15, Reaction Biology Corp., read-out: HDAC6 inhibitory activity; for Selectivity (HDAC6/1): ratio of the HDAC 1 and HDAC 6 values of Table 15; for selectivity for HDAC6 over HDAC1: text on Table 15
T4 sequence (Q9UBN7 1-1215): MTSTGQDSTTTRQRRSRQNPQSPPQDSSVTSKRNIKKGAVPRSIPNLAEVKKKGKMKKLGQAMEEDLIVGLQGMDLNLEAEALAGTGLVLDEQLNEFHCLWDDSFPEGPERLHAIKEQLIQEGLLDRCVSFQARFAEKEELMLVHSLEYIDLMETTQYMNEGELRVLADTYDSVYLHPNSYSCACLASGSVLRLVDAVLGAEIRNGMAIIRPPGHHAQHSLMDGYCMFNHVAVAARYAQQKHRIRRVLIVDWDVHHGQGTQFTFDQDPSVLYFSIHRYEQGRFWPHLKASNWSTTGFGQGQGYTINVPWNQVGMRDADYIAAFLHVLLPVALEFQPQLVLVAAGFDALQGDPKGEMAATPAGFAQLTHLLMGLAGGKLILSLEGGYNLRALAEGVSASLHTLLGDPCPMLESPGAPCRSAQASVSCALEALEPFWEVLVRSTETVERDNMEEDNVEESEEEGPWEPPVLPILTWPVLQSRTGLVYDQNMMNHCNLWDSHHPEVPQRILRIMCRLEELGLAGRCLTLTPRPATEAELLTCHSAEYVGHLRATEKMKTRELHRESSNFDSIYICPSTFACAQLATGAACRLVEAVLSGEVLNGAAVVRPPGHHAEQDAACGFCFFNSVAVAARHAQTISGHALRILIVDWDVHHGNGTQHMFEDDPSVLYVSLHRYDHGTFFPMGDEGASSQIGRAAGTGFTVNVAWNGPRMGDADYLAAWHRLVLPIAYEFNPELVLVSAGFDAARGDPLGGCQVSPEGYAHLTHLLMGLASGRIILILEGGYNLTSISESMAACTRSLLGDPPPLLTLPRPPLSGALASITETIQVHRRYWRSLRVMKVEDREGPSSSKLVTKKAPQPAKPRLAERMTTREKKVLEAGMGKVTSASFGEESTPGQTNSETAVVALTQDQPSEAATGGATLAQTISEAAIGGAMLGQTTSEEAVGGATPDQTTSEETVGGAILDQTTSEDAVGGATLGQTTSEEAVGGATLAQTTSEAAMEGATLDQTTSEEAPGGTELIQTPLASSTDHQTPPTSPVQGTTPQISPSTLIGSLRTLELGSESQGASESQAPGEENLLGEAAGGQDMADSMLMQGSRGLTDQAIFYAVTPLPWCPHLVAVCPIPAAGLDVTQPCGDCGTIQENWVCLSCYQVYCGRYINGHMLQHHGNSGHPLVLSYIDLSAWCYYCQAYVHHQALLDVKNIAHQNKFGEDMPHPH
Text: as §1

T2 sequence (Q9UKV0 whole entry): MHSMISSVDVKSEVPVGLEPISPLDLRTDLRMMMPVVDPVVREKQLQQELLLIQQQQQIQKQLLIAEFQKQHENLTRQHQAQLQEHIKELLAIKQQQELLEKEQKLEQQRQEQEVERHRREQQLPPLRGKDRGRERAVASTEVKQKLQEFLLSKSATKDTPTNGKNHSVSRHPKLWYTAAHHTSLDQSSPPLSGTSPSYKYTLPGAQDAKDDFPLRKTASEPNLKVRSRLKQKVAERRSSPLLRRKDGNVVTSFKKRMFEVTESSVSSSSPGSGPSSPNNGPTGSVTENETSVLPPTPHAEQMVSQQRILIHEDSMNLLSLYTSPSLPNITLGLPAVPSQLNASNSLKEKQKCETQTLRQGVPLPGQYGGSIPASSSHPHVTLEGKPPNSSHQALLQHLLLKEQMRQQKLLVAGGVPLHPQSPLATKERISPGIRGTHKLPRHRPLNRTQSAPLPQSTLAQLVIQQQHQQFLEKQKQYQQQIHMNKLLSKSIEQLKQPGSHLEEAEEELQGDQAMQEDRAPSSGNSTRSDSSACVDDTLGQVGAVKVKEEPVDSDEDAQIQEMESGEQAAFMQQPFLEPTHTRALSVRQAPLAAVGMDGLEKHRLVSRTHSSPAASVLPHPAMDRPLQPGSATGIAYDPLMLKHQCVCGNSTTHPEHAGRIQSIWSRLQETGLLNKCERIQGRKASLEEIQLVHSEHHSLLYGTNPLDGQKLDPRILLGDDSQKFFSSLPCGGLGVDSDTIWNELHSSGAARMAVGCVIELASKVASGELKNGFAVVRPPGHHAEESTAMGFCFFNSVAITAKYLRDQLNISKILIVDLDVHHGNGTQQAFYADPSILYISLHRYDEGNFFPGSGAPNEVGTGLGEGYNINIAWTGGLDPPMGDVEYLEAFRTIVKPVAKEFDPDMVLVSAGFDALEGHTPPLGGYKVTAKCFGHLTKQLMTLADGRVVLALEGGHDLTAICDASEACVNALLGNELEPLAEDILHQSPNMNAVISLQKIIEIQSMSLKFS
Sequence of HDAC1 (Q13547 whole entry): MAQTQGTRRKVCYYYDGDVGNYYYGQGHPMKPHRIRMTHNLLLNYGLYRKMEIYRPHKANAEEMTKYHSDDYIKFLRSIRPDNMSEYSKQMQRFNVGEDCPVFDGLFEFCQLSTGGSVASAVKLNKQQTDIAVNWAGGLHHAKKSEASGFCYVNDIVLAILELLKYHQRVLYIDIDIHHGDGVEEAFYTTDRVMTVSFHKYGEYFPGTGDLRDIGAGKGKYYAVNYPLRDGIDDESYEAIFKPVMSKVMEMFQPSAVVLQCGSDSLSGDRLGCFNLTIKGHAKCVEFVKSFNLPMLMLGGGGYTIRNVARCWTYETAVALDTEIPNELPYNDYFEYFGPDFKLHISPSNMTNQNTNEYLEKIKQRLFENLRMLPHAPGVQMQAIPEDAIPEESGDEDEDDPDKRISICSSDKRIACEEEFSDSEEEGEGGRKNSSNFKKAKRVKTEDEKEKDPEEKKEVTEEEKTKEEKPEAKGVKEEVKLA
T1 sequence (O15379 whole entry): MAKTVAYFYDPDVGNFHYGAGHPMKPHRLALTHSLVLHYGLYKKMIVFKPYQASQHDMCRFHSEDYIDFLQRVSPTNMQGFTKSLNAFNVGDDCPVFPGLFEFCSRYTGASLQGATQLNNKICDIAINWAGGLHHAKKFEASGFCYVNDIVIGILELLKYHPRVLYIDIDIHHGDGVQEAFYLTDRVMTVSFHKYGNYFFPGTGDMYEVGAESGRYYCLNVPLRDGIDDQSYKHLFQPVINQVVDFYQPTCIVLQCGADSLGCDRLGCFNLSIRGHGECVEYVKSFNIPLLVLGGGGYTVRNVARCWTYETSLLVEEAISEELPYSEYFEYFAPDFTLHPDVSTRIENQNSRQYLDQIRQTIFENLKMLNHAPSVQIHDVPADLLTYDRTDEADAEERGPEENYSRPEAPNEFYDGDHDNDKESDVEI
T1 sequence (Q9Y618 395-489 partner limits assumed): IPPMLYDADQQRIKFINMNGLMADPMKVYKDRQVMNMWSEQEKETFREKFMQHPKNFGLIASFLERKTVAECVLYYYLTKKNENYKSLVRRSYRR

| SMILES | IC50 (HDAC 3) [nM] | IC50 (HDAC 9) [nM] | IC50 (HDAC 10) [nM] | clinical score ([1]; 10 mg/kg twice a day, score 0 to 16, vehicle group 11.6) | clinical score ([1]; 30 mg/kg twice a day, score 0 to 16, vehicle group 11.6) | arthritis symptoms improved by ([1]; 10 and 30 mg/kg twice a day) | IC50 (HDAC1) [nM] | IC50 (HDAC 6) [nM] | Selectivity (HDAC6/1) (HDAC 6) | selectivity for HDAC6 over HDAC1 (HDAC 6) [times] | arthritis symptoms improved by ([1]; different concentrations (doses not given)) | clinical score ([1]; different concentrations, first value listed (dose not given), vehicle group 6.7) | clinical score ([1]; different concentrations, second value listed (dose not given), vehicle group 6.7) |
| --- | --- | --- | --- | --- | --- | --- | --- | --- | --- | --- | --- | --- | --- |
| O=C(NO)c1ccc(CN(C(=O)N2CCOCC2)c2cccc(Br)c2)cc1 [Compound 255, N-(3-bromophenyl)-N-(4-(hydroxycarbamoyl)benzyl)morpholine-4-carboxamide] | 1630 | 3520 | 1470 | 5.2 | 6.5 | more than 50% | 160 | 1 | 160 | 160 | – | – | – |
| O=C(NO)c1ccc(CN(C(=O)N2CCOCC2)c2cccc(C(F)(F)F)c2)cc1 [Compound 374, N-(4-(hydroxycarbamoyl)benzyl)-N-(3-(trifluoromethyl)phenyl)morpholine-4-carboxamide] | 10300 | 10300 | 16200 | – | – | – | 2120 | 5 | 424 | 424 | more than 60% | 2.8 | 2.5 |
